Tested on: plasma CRP
Test: Plasma CRP in hyperlipidemic obese rhesus macaques, dose-escalating treatment
Type: in vivo
Protocol: In the present study, n=6 male obese rhesus macaques were selected for the study and prepared with 4 weeks of diet run-in (week −4 to week 0). At week 0, blood samples were taken in order to determine baseline plasma levels of CRP were measured prior to beginning dosage with Compound 1 as tosylate salt. Dosage began on the same day at 6 mg/kg/day in divided doses, given with food, and continued for four weeks. Dose was subsequently escalated at 4-week intervals to 12 mg/kg/d, 24 mg/kg/d, and finally 48 mg/kg/day. Plasma samples were taken at the close of each 4-week regimen, and a final sample was taken after 4 weeks of washout following discontinuation of dosing.
Quantitative measurements of plasma CRP in each sample taken were made by LabCorp, Inc. (Laboratory Corporation of America) by a multi-calibrator based high sensitivity wide ranged method using a immunoturbidometric assay. The limit of quantitation for the assay was 0.05 mg/dL and the highest point on the calibrator was 32 mg/dL. Mean values as percent change from baseline, and standard deviation as percent change from baseline, were calculated across the group and are shown in Table 2. Mean values for weeks 8-16 fell below the limit of quantiatation, and no data could therefore be reported for the standard deviation.

C[C@@H]1CN(c2ccc(OC(F)(F)F)cc2)C[C@H](C)N1S(=O)(=O)c1cccc2c1CC(C(=O)O)C2 (stereo partly drawn) [Compound 1, 4-[cis-2,6-Dimethyl-4-(4-trifluoromethoxy-phenyl)-piperazine-1-sulfonyl]-indan-2-carboxylic acid]
plasma CRP change (over 16 weeks of dose-escalating treatment, hyperlipidemic rhesus macaques): significantly reduced
CRP levels during the washout period (washout period after 16 weeks of dosing): reverted back to the pre-treatment levels
Mean Plasma CRP (week 4, 6 mg/kg per day in divided doses with food, as tosylate salt, n=6 male obese rhesus macaques, baseline week 0 = 0.233): 0.166 mg/dL
Mean Plasma CRP (week 8, 12 mg/kg per day, as tosylate salt, LOQ 0.05): < 0.05 mg/dL
Mean Plasma CRP (week 12, 24 mg/kg per day, as tosylate salt, LOQ 0.05): < 0.05 mg/dL
Mean Plasma CRP (week 16, 48 mg/kg per day, as tosylate salt, LOQ 0.05): < 0.05 mg/dL
Mean Plasma CRP (week 20, after 4 weeks of washout following discontinuation of dosing (dose 0)): 0.183 mg/dL

From patent US20080004281A1, “METHODS FOR THE MODULATION OF CRP BY THE SELECTIVE MODULATION OF PPAR DELTA” (KALYPSYS, INC., priority 2006, published 2008)
